In publication PMC6467533 (Chembiochem : a European journal of chemical biology, 2018):
Converted amounts (≈) assume the structure as drawn.

Assays:
Mtb TPP = Mtb TPP (Mycobacterium tuberculosis, UniProt P9WFZ5); type: biochemical
Mlt TPP = type: biochemical, M. lentiflavum
Mtx TPP = Mtx TPP (Mycobacterium triplex, UniProt A0A024JUE5); assay: biochemical; design: species or system M. triplex
M. aurum = settings: cited from earlier work
[1] = tested on: M. smegmatis biofilm formation; settings: cited from earlier work
Ag85C = settings: cited from earlier work
E. coli TPP = settings: cited from earlier work
Mtb = settings: cited from earlier work

Chain of Mtx TPP (A0A024JUE5 1-354): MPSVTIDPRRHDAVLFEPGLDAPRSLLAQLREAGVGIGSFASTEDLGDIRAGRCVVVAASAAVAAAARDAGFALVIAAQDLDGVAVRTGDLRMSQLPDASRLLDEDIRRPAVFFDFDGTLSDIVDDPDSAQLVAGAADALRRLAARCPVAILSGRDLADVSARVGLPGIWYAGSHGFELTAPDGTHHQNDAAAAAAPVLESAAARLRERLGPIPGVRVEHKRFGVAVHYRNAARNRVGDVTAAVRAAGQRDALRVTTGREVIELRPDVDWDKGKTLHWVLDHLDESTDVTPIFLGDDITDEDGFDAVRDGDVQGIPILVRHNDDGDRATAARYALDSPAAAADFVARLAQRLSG
Chain of Mtb TPP (P9WFZ5 whole entry, looked up): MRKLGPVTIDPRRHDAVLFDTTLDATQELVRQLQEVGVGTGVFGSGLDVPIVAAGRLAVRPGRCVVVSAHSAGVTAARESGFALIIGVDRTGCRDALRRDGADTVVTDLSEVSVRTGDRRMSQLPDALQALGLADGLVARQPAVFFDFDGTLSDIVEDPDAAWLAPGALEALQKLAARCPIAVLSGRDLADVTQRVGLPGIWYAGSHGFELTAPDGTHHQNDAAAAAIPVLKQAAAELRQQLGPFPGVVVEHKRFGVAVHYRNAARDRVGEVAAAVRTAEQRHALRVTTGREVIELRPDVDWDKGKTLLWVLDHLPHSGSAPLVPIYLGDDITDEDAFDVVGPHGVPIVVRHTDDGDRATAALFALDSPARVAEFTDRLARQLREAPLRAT

SMILES: OC[C@H]1O[C@H](O[C@H]2O[C@H](CC3CO3)[C@@H](O)[C@H](O)[C@H]2O)[C@H](O)[C@@H](O)[C@@H]1O (stereo partly drawn) [Compound 7, 6-deoxy-6-oxiranyl-α,α’-trehalose]
- inhibition of Mtb TPP (Mtb TPP): no inhibition
- inhibition of Mlt TPP (Mlt TPP): no inhibition
- inhibition of Mtx TPP (Mtx TPP): no inhibition

SMILES: [N-]=[N+]=NC[C@H]1O[C@H](O[C@H]2O[C@H](CO)[C@@H](O)[C@H](O)[C@H]2O)[C@H](O)[C@@H](O)[C@@H]1O [6-azido-6-deoxy-α,α’-trehalose]
- MIC, growth of M. aurum (M. aurum): 200 µg/mL
- MIC, M. smegmatis biofilm formation [1]: 50 to 100 µM
- inhibition of Ag85C activity (Ag85C): inhibit Ag85C activity

SMILES: CC1OC(OC2OC(CO)C(O)C(O)C2O)C(O)C(O)C1O (stereo not drawn) [6-deoxy-α,α’-trehalose]
- MIC, M. smegmatis biofilm formation [1]: 50 to 100 µM

SMILES: O=P(O)(O)C[C@H]1O[C@H](O[C@H]2O[C@H](CO)[C@@H](O)[C@H](O)[C@H]2O)[C@H](O)[C@@H](O)[C@@H]1O [TMP, 6-Deoxy-6-(phosphonic acid)-α,α’-trehalose]
- IC50 (Mtx TPP): 288 ± 32 µM

SMILES: O=P(O)(O)CC[C@H]1O[C@H](O[C@H]2O[C@H](CO)[C@@H](O)[C@H](O)[C@H]2O)[C@H](O)[C@@H](O)[C@@H]1O [TEP, 6-Deoxy-6-(methylenephosphonic acid)-α,α’-trehalose]
- IC50 (Mtx TPP): 1960 ± 261 µM

SMILES: OCC1=C[C@@H](N[C@H]2C[C@H](CO)[C@@H](O[C@H]3O[C@@H](CO)[C@H](O)[C@@H](O)[C@@H]3O)[C@H](O)[C@H]2O)[C@H](O)[C@@H](O)[C@@H]1O [Validamycin A]
- IC50 against Mtb TPP (Mtb TPP): unexpectedly high
- IC50 against Mlt TPP (Mlt TPP): unexpectedly high
- IC50 against Mtx TPP (Mtx TPP): unexpectedly high
- inhibition of E. coli TPP (E. coli TPP): completely inhibit

SMILES: OCC1OC(OC2OC(CF)C(O)C(O)C2O)C(O)C(O)C1O (stereo not drawn) [6-fluoro-6-deoxy-α,α’-trehalose]
- MIC against Mtb (Mtb): 200 µg/mL (≈ 581 µM)
- MIC, M. smegmatis biofilm formation [1]: 50 to 100 µM

SMILES: OC[C@H]1O[C@H](O[C@H]2O[C@H](CBr)[C@@H](O)[C@H](O)[C@H]2O)[C@H](O)[C@@H](O)[C@@H]1O [6-bromo-6-deoxy-α,α’-trehalose]
- MIC against Mtb (Mtb): 200 µg/mL (≈ 494 µM)
